# Measurements published in PMC3154276, “The Effect of the Potential PhoQ Histidine Kinase Inhibitors on Shigella flexneri Virulence” (PLoS ONE, 2011).
# Assays:
# [1] = tested on: Salmonella enterica Typhimurium SL1344; experiment: Salmonella cell invasion assay (gentamicin protection, HeLa cells); type: cell-based; conditions: for cell invasion rate of Salmonella enterica Typhimurium SL1344: HeLa cells, untreated Salmonella 6×10^−2; for effect on cell invasion of Salmonella SL1344 (words, discussion): Figure 7, concentration not restated
# Protocol: The effects of potential PhoQ inhibitors on cell invasion of Salmonella were determined by gentamicin protection assay.
# Figure 7 The effects of potential PhoQ inhibitors on cell invasion of Salmonella. […] The bacteria pre-treated with potential PhoQ inhibitor were added to HeLa cells at a multiplicity of infection of 100. Then gentamicin was added to kill extracellular bacteria and cell lysates were plated onto LB plates, and the colonies were counted. The results of the assays were expressed as the number of bacteria recovered from gentamicin-treated cells divided by the number of inoculated bacteria added to the cell. Salmonella enterica typhimurium SL1344 served as the positive control for the cell invasion assay; E. coli ATCC 25922 (treated without DMSO), an avirulent strain, served as the negative control for the cell invasion assay; bacteria treated with 0.1% DMSO also served as a control for the cell invasion assay. Values are means ± standard deviations from 6 independent wells. *p<0.01 vs. SL1344.
# The gentamicin protection assay was used as a cellular model to evaluate the inhibitory effect of the four potential PhoQ inhibitors. Salmonella enterica typhimurium SL1344 was treated with each of the four potential PhoQ inhibitors (final concentrations: potential PhoQ inhibitor 1 was 12.5 µmol/L, 2 was 25 µmol/L, 3 was 100 µmol/L and 4 was 100 µmol/L) and grown for 8 hours. The bacteria pre-treated with potential PhoQ inhibitor without washing, were added to HeLa cells at a multiplicity of infection of 100, at the same time the bacteria were diluted and plated onto LB agar plates. The CFUs were counted as initial bacterial number before added into HeLa cells. Next, the bacteria were inoculated to HeLa cells and incubated with for 60 minutes prior to the addition of gentamicin to kill extracellular bacteria. After the incubation, the HeLa cells in each well were lysed in 1 ml of PBS containing 0.1% Triton X-100 for 10 minutes at room temperature. The lysates were diluted and plated onto LB agar plates in triplicate. Colonies grown on LB plates were counted. The results of the assays were expressed as the number of bacteria recovered from gentamicin-treated cells divided by the number of inoculated bacteria added to the cell. After lysates of HeLa cells were plated, the number of CFU that formed on LB agar were counted. The cells were inoculated with untreated SL1344 (treated without DMSO) as a positive control and E. coli ATCC 25922, an avirulent strain treated without DMSO, as a negative control. SL1344 was treated with the same amount of 0.1% DMSO as the other groups to control for any DMSO-specific effects. The cell invasion assay was performed in triplicate for each potential PhoQ inhibitor, and the assay was repeated twice.
# S. flexneri 2a 301 = experiment: Gentamicin protection assay, HeLa cell invasion by Sf301; type: cell-based; conditions: bacteria treated 8 h, Figure S4
# Protocol: Supplementary file pone.0023100.s004.tif: Figure S4 The effects of potential PhoQ inhibitors on cell invasion of Shigella Sf 301. […] The bacteria were treated with each of the four potential PhoQ inhibitors grown for 8 h. Then the bacteria were inoculated with HeLa cells for 60 minutes prior to the addition of gentamicin to kill extracellular bacteria. After the incubation, the HeLa cells in each well were lysed in 1 ml of PBS containing 0.1% Triton X-100. The lysates were diluted and plated onto LB agar plates in triplicate. Colonies grown on LB plates were counted. The results of the assays were expressed as the number of bacteria recovered from gentamicin-treated cells divided by the number of inoculated bacteria added to the cell. Values are means ± standard deviations from 6 independent wells. *p<0.01 vs. Sf301. […] (TIF) Click here for additional data file.
# S. flexneri Sf9380 = experiment: Mouse Sereny test (keratoconjunctivitis); as to degree of keratoconjunctival inflammation: key: −: no disease; ±: little keratoconjunctivitis; +: mild keratoconjunctivitis; ++: keratoconjunctivitis with some purulence; +++: fully developed keratoconjunctivitis with great purulence; type: in vivo, BALB/c mice; conditions: for degree of keratoconjunctival inflammation: Sf9380 pre-treated at the concentration (I 1 12.5, I 2 25, I 3 and I 4 100 µmol/L); for eye finding at 24 hours post-infection / time by which keratoconjunctivitis was resolved: Sf9380 pre-treated with 100 µmol/L, 1×10^8 CFUs per eye; for keratoconjunctival inflammation (words, abstract): mice inoculated with pre-treated S. flexneri 9380
# From the text: A Mouse Sereny test was used to investigate the inhibitory effect of the four potential PhoQ inhibitors on the virulence of S. flexneri Sf9380. The mice were infected with 1×10^8 CFUs per eye.
# A Mouse Sereny test was used to evaluate the virulence of S. flexneri Sf9380 [48]. A single red colony of Sf9380 on Congo Red agar (Tryptic soy broth provided by Oxfoid Co. with 1.5% agar and 0.01% Congo red), was inoculated into LB and grown with or without potential PhoQ inhibitors (final concentration 100,50,25,12.5 or 6.25 µmol/L) at 37°C for 8 hours with constant shaking. The female BALB/c mice (about 18 g) were infected with 1×10^8 CFUs per eye. The eye of the mouse was inoculated with the bacterium with or without potential PhoQ inhibitor treatment (n = 6 mice in each group). […] In the experiment, mouse eyes inoculated with untreated Sf9380 (treated without DMSO) served as the positive control for keratoconjunctivitis, and mouse eyes inoculated with E. coli ATCC 25922 (treated without DMSO) served as the negative control. Because DMSO is the solvent of the potential PhoQ inhibitor, Sf9380 was treated with the same amount of DMSO (0.1%) as the other groups. The invasiveness of the bacteria was scored: no disease or mild irritation as “−”, + as mild conjunctivitis or late development and/or rapid clearing of symptoms, ++ as keratoconjunctivitis without purulence, and +++ as fully developed keratoconjunctivitis with purulence.
Structure (SMILES),cell invasion rate of Salmonella enterica Typhimurium SL1344 ([1]; 100 µmo/L),"effect on cell invasion of Salmonella SL1344 (words, discussion) [1]",effect on HeLa cell invasion ability of Sf301 (S. flexneri 2a 301),"degree of keratoconjunctival inflammation (S. flexneri Sf9380; 24 h, mouse 1)","degree of keratoconjunctival inflammation (S. flexneri Sf9380; 24 h, mouse 2)","degree of keratoconjunctival inflammation (S. flexneri Sf9380; 24 h, mouse 3)","degree of keratoconjunctival inflammation (S. flexneri Sf9380; 24 h, mouse 4)","degree of keratoconjunctival inflammation (S. flexneri Sf9380; 24 h, mouse 5)","degree of keratoconjunctival inflammation (S. flexneri Sf9380; 24 h, mouse 6)","degree of keratoconjunctival inflammation (S. flexneri Sf9380; 48 h, mouse 1)","degree of keratoconjunctival inflammation (S. flexneri Sf9380; 48 h, mouse 2)","degree of keratoconjunctival inflammation (S. flexneri Sf9380; 48 h, mouse 3)","degree of keratoconjunctival inflammation (S. flexneri Sf9380; 48 h, mouse 4)","degree of keratoconjunctival inflammation (S. flexneri Sf9380; 48 h, mouse 5)","degree of keratoconjunctival inflammation (S. flexneri Sf9380; 48 h, mouse 6)","degree of keratoconjunctival inflammation (S. flexneri Sf9380; 72 h, mouse 1)","degree of keratoconjunctival inflammation (S. flexneri Sf9380; 72 h, mouse 2)","degree of keratoconjunctival inflammation (S. flexneri Sf9380; 72 h, mouse 3)","degree of keratoconjunctival inflammation (S. flexneri Sf9380; 72 h, mouse 4)","degree of keratoconjunctival inflammation (S. flexneri Sf9380; 72 h, mouse 5)",also measured
O=C(O)c1ccc(Cl)c(-c2ccc(/C=N/NC(=O)c3ccc(Br)cc3)o2)c1 [Compound 3],0.036×10^−2,inhibited,can inhibit,+,+,+,+,+,+,+,−,−,−,+,−,−,+,−,−,−,"times lower invasion than the control, SL1344 ([1]; 100 µmo/L): 166 times; degree of keratoconjunctival inflammation (S. flexneri Sf9380; 72 h, mouse 6): −; degree of keratoconjunctival inflammation (S. flexneri Sf9380; 96 h, mouse 1): −; degree of keratoconjunctival inflammation (S. flexneri Sf9380; 96 h, mouse 2): −; degree of keratoconjunctival inflammation (S. flexneri Sf9380; 96 h, mouse 3): −; degree of keratoconjunctival inflammation (S. flexneri Sf9380; 96 h, mouse 4): −; degree of keratoconjunctival inflammation (S. flexneri Sf9380; 96 h, mouse 5): −; degree of keratoconjunctival inflammation (S. flexneri Sf9380; 96 h, mouse 6): −; eye finding at 24 hours post-infection (S. flexneri Sf9380): slight conjunctival inflammation; time by which keratoconjunctivitis was resolved (S. flexneri Sf9380): ≤ 72 h; keratoconjunctival inflammation (words, abstract) (S. flexneri Sf9380): no inflammation"
O=C(O)c1cc(-c2ccc(-c3ccccc3Cl)o2)nc2ccc3ccccc3c12 [Compound 4],5.7×10^−2,no obvious effect,no effect,+,+,+,+,+,−,+,−,−,−,+,−,+,−,−,−,−,"effect on cell invasion of SL1344 ([1]; 100 µmo/L): no obvious effect; degree of keratoconjunctival inflammation (S. flexneri Sf9380; 72 h, mouse 6): −; degree of keratoconjunctival inflammation (S. flexneri Sf9380; 96 h, mouse 1): −; degree of keratoconjunctival inflammation (S. flexneri Sf9380; 96 h, mouse 2): −; degree of keratoconjunctival inflammation (S. flexneri Sf9380; 96 h, mouse 3): −; degree of keratoconjunctival inflammation (S. flexneri Sf9380; 96 h, mouse 4): −; degree of keratoconjunctival inflammation (S. flexneri Sf9380; 96 h, mouse 5): −; degree of keratoconjunctival inflammation (S. flexneri Sf9380; 96 h, mouse 6): −; eye finding at 24 hours post-infection (S. flexneri Sf9380): slight conjunctival inflammation; time by which keratoconjunctivitis was resolved (S. flexneri Sf9380): ≤ 72 h; keratoconjunctival inflammation (words, abstract) (S. flexneri Sf9380): no inflammation"
